Consider 15 compounds from ChEMBL document CHEMBL3044922, “N 1-{4-[(10S)-Dihydroartemisinin-10-oxyl]}phenylmethylene-N 2-(2-methylquinoline-4-yl)hydrazine derivatives as antiplasmodial falcipain-2 inhibitors” (Med Chem Res, 2012).

Assay [1] deals with T1, Falcipain 2 (Plasmodium falciparum) (UniProt Q9N6S8).
T1 sequence (whole entry): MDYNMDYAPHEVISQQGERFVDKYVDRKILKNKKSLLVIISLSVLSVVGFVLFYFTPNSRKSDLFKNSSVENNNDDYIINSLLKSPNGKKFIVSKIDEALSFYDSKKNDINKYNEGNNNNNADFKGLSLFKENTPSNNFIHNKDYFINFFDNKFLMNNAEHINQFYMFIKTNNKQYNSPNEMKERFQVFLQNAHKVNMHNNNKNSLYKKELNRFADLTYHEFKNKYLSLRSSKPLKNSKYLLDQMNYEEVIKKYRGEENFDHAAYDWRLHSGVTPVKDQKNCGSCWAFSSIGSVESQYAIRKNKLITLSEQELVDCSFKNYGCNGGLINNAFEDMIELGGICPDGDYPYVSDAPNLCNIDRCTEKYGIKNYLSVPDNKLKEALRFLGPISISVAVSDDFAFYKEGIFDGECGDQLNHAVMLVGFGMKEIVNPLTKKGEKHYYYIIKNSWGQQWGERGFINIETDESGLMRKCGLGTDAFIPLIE
The assay is described as follows: Inhibition of Plasmodium falciparum recombinant falcipain 2 expressed in Escherichia coli using Z-Leu-Arg-AMC as substrate at 10 uM incubated for 30 min prior to substrate addition measured for 30 min by fluorometric analysis.

The next assay deals with T2, Falcipain 2 (Plasmodium falciparum, UniProt Q9N6S8).
T2 sequence (Q9N6S8 whole entry): T1 sequence (whole entry)
The assay is described as follows: Inhibition of Plasmodium falciparum recombinant falcipain 2 expressed in Escherichia coli using Z-Leu-Arg-AMC as substrate incubated for 30 min prior to substrate addition measured for 30 min by fluorometric analysis.

Each structure is given as a SMILES string.

Regarding `Cc1cc(N/N=C/c2ccc(O[C@H]3O[C@@H]4O[C@@]5(C)CC[C@H]6[C@H](C)CC[C@@H]([C@H]3C)[C@@]46OO5)cc2)c2cccc(Br)c2n1`, the inhibition (commonly the share of the control response that was lost under treatment) in assay [1] turned out to be 94.1%. The IC50 – broadly, the concentration that inhibits the measured activity by half – at Falcipain 2 amounted to 840 nM.
For `CC(C)C[C@H](NC(=O)[C@H]1O[C@@H]1C(=O)O)C(=O)NCCCCN=C(N)N` [E-64], the inhibition in assay [1] amounted to 92%. In addition, the IC50 at Falcipain 2 turned out to be 20 nM.
In the same order, the values of `Cc1cc(N/N=C/c2ccc(O[C@H]3O[C@@H]4O[C@@]5(C)CC[C@H]6[C@H](C)CC[C@@H]([C@H]3C)[C@@]46OO5)cc2)c2c(Cl)ccc(C)c2n1` are 79.4% and 390 nM.
In the same order, the values of `Cc1cc(N/N=C/c2ccc(O[C@H]3O[C@@H]4O[C@@]5(C)CC[C@H]6[C@H](C)CC[C@@H]([C@H]3C)[C@@]46OO5)cc2)c2ccc(C)c(C)c2n1` are 79.4% and 840 nM.
On the same counts, the results for `Cc1cc(N/N=C/c2ccc(O[C@H]3O[C@@H]4O[C@@]5(C)CC[C@H]6[C@H](C)CC[C@@H]([C@H]3C)[C@@]46OO5)cc2)c2cc(Cl)ccc2n1` are 88.2% and 150 nM.
Regarding `CCc1cccc2c(N/N=C/c3ccc(O[C@H]4O[C@@H]5O[C@@]6(C)CC[C@H]7[C@H](C)CC[C@@H]([C@H]4C)[C@@]57OO6)cc3)cc(C)nc12`, the inhibition in assay [1] is 85.1%. In addition, at Falcipain 2, the IC50 stood at 520 nM.
In the same order, the values of `Cc1ccc2nc(C)cc(N/N=C/c3ccc(O[C@H]4O[C@@H]5O[C@@]6(C)CC[C@H]7[C@H](C)CC[C@@H]([C@H]4C)[C@@]57OO6)cc3)c2c1` are 87.2% and 780 nM.
On the same counts, the results for `Cc1cc(N/N=C/c2ccc(O[C@H]3O[C@@H]4O[C@@]5(C)CC[C@H]6[C@H](C)CC[C@@H]([C@H]3C)[C@@]46OO5)cc2)c2ccccc2n1` are 94.1% and 890 nM.
On the same counts, the results for `Cc1cc(N/N=C/c2ccc(O[C@H]3O[C@@H]4O[C@@]5(C)CC[C@H]6[C@H](C)CC[C@@H]([C@H]3C)[C@@]46OO5)cc2)c2ccc(Cl)c(C)c2n1` are 82.6% and 210 nM.
As to `Cc1cc(N/N=C/c2ccc(O[C@H]3O[C@@H]4O[C@@]5(C)CC[C@H]6[C@H](C)CC[C@@H]([C@H]3C)[C@@]46OO5)cc2)c2ccc(Cl)cc2n1`, the inhibition in assay [1] was found to be 88.4%. Also, at Falcipain 2, the IC50 stood at 170 nM.
On the same counts, the results for `Cc1cc(N/N=C/c2ccc(O[C@H]3O[C@@H]4O[C@@]5(C)CC[C@H]6[C@H](C)CC[C@@H]([C@H]3C)[C@@]46OO5)cc2)c2cc(F)ccc2n1` are 88.6% and 670 nM.
In the same order, the values of `Cc1cc(N/N=C/c2ccc(O[C@H]3O[C@@H]4O[C@@]5(C)CC[C@H]6[C@H](C)CC[C@@H]([C@H]3C)[C@@]46OO5)cc2)c2cc(Br)ccc2n1` are 89.8% and 260 nM.
On the same counts, the results for `Cc1cc(N/N=C/c2ccc(O[C@H]3O[C@@H]4O[C@@]5(C)CC[C@H]6[C@H](C)CC[C@@H]([C@H]3C)[C@@]46OO5)cc2)c2cccc(C)c2n1` are 84.3% and 2280 nM.
`Cc1cc(N/N=C/c2ccc(O[C@H]3O[C@@H]4O[C@@]5(C)CC[C@H]6[C@H](C)CC[C@@H]([C@H]3C)[C@@]46OO5)cc2)c2cccc(F)c2n1`: the inhibition in assay [1] worked out at 84.7%. Besides, on Falcipain 2, the IC50 came out at 280 nM.
In the same order, the values of `COc1ccc2nc(C)cc(N/N=C/c3ccc(O[C@H]4O[C@@H]5O[C@@]6(C)CC[C@H]7[C@H](C)CC[C@@H]([C@H]4C)[C@@]57OO6)cc3)c2c1` are 93.7% and 290 nM.
